Measured values published in patent US12636297B2, “Boronic acid derivatives and therapeutic uses thereof” (priority 2019, dated 2026).
Like-named read-outs stand apart in the source and are kept apart here.

What was measured:
P. aeruginosa = assay: Susceptibility testing of 262 P. aeruginosa strains with meropenem MIC >2 μg/mL; format: cell-based, Pseudomonas aeruginosa; details: Compound 1 at 8 μg/mL; for % of susceptible organisms at breakpoints: breakpoints ≤8 μg/mL meropenem and cefepime, ≤4 μg/mL ceftolozane, ≤16 μg/mL piperacillin
Description: (§1) In addition, 509 Carbapenem-Resistant Enterobacteriaceae were tested with meropenem, cefepime, and ceftolozane alone and in combination with Compound 1 at 8 μg/mL. Furthermore, 262 strains of P. aeruginosa with a meropenem MIC>2 μg/mL were tested with meropenem, ceftolozane, cefepime and piperacillin alone and in combination with Compound 1 at 8 μg/mL.
262 strains of P. aeruginosa having a meropenem MIC greater than 2 μg/mL were tested with meropenem, ceftolozane, cefepime and piperacillin alone and Compound 1 at 8 μg/mL.

[1] = system: Carbapenem-Resistant Enterobacteriaceae; assay: MIC distribution for 509 Carbapenem-Resistant Enterobacteriaceae (FIG. 2); format: cell-based; details: Compound 1 at 8 μg/mL
Description: as §1
The MIC distribution of combinations of Compound 1 with meropenem, cefepime and cetolozane alone, or with Compound 1 at 8 μg/mL for Carbapenem-Resistant Enterobacteriaceae were tested.

[2] = system: carbapenem resistant Enterobacteriaceae (CRE); assay: MIC of antibiotics with Compound 1 against panel of 510 CRE clinical isolates; format: cell-based; details: for MIC50 / MIC90: antibiotic alone
Description: In this example, the antibiotics meropenem, cefepime, ceftolozane and cefiderocol, were tested in combination with Compound 1 at 4 μg/ml and 8 μg/ml against a panel of 510 clinical isolates representing various types of carbapenem resistant Enterobacteriaceae (CRE). Cefiderocol was tested at standard conditions, in […] media.

[3] = system: carbapenem resistant Acinetobacter baumannii; assay: MIC of antibiotics with Compound 1 against panel of 503 carbapenem resistant Acinetobacter baumannii clinical isolates; format: cell-based; details: for MIC50 / MIC90: carbapenem resistant Acinetobacter baumannii (N = 503), antibiotic alone
Description: In another experiment, various antibiotics, meropenem, cefepime, ceftolozane and cefiderocol, were tested in combination with Compound 1 at 4 μg/ml and 8 μg/ml against the panel of 503 clinical isolates of carbapenem resistant Acinetobacter baumannii. […] Cefiderocol was tested at standard conditions, in […] media.

[4] = system: carbapenem-resistant (CR) Acinetobacter baumannii (AB); assay: Broth microdilution MIC of β-lactams alone and with Compound 1 against carbapenem-resistant Acinetobacter baumannii clinical isolates; format: cell-based; details: for % susceptible, [S]: breakpoints MER ≤8 μg/mL, TOL ≤4 μg/mL; for MIC: SUL alone
Description: (§2) In this example the in vitro activity of Compound 1 was evaluated in combination with several β-lactams including sulbactam, meropenem, and ceftolozane against clinical isolates of carbapenem-resistant (CR) Acinetobacter baumannii (AB) and Pseudomonas aeruginosa (PA).

[5] = system: Pseudomonas aeruginosa (PA); assay: Broth microdilution MIC of β-lactams alone and with Compound 1 against Pseudomonas aeruginosa clinical isolates (representative and challenge panels); format: cell-based; details: for Minimum Inhibitory Concentration Distribution, % of isolates: representative panel of PA (N = 500), without Compound 1, AVI and TAZ at 4 μg/mL; for % susceptible, [S] / MIC50 / MIC90: Compound 1, AVI, and TAZ at fixed 4 μg/mL; for % susceptible, [S]: breakpoints MER ≤8, TOL ≤4, CAZ ≤8 μg/mL; for MIC50 / MIC90: Pseudomonas aeruginosa
Description: as §2

[6] = non-carbapenemase producing CRE, N = 45
[7] = CRAB (300), Compound 1 at fixed 4 μg/mL

For `O=C(O)c1c(F)ccc2c1OB(O)[C@@H]1C[C@H]21` [Compound 1, 5-Fluoro-2-hydroxy-1a,7b-dihydro-1H-cyclopropa[c][1,2]benzoxaborinine-4-carboxylic acid], the “Effect on proportion of susceptible P. aeruginosa” value (P. aeruginosa; 262 strains with meropenem MIC >2 μg/mL) was “increased the proportion of susceptible organisms for all tested agents”, the “Effect on potency of meropenem, cefepime and ceftolozane (MIC distribution, FIG. 2)” value [1] was “significantly increased potency of all tested antibiotics” and the “Effect on MIC90 of antibiotics” value ([2]; Compound 1 at 4 and 8 μg/ml, 510 CRE clinical isolates) was “shifted MIC90 of all antibiotics (except ceftolozane tested against metallo beta-lactamases, MBL) into susceptible range”. For the same compound, the “Effect on potency of antibiotics” value ([3]; Compound 1 at 4 and 8 μg/ml, 503 carbapenem resistant A. baumannii isolates) was “significantly enhances the potency of meropenem and cefiderocol”.
In the case of `CO/N=C(\C(=O)N[C@@H]1C(=O)N2C(C(=O)[O-])=C(C[N+]3(C)CCCC3)CS[C@H]12)c1csc(N)n1` [FEP, cefepime], the “% of susceptible organisms at breakpoints” value (shortened to “% of susceptible organisms”) (P. aeruginosa; All strains (N = 262), meropenem MIC >2 μg/mL) is reported as 20%, the “% of susceptible organisms” value (P. aeruginosa; MBL (N = 56)) is reported as 4% and the “% of susceptible organisms” value (P. aeruginosa; No MBL (N = 206)) is reported as 24%. It also gave an MIC50 ([2]; CRE KPC, N = 168) of 32 µg/mL, an MIC90 ([2]; CRE KPC, N = 168) of over 32 µg/mL and an MIC50 ([2]; CRE MBL, N = 145) of over 32 µg/mL. The MIC90 ([2]; CRE MBL, N = 145) was over 32 µg/mL, the MIC50 ([2]; CRE OXA, N = 152) was over 32 µg/mL and the MIC90 ([2]; CRE OXA, N = 152) was over 32 µg/mL. It also gave an MIC50 [2, 6] of over 32 µg/mL, an MIC90 [2, 6] of over 32 µg/mL and an MIC50 [3] of over 32 µg/mL. The MIC90 [3] was over 32 µg/mL.
`CC(C)(O/N=C(\C(=O)N[C@@H]1C(=O)N2C(C(=O)[O-])=C(C[N+]3(CCNC(=O)c4ccc(O)c(O)c4Cl)CCCC3)CS[C@H]12)c1csc(N)n1)C(=O)O` [DER, cefiderocol] showed an MIC50 ([2]; CRE KPC, N = 168) of 2 µg/mL, an MIC90 ([2]; CRE KPC, N = 168) of 32 µg/mL and an MIC50 ([2]; CRE MBL, N = 145) of 8 µg/mL. For the same compound, the MIC90 ([2]; CRE MBL, N = 145) was over 32 µg/mL, the MIC50 ([2]; CRE OXA, N = 152) was 1 µg/mL and the MIC90 ([2]; CRE OXA, N = 152) was 8 µg/mL. It also gave an MIC50 [2, 6] of 2 µg/mL, an MIC90 [2, 6] of 32 µg/mL and an MIC50 [3] of 1 µg/mL. It also gave an MIC90 [3] of 32 µg/mL.
For `Cn1c(N)c(NC(=O)NCCN)c[n+]1CC1=C(C(=O)O)N2C(=O)[C@@H](NC(=O)/C(=N\OC(C)(C)C(=O)[O-])c3nsc(N)n3)[C@H]2SC1` [TOL, ceftolozane], the “% susceptible, [S]” value ([4]; AB CP (100), defined carbapenemases, Compound 1 at fixed 4 μg/mL) was “(0.0) %”, the MIC50 ([4]; Acinetobacter baumannii, AB CP (100), defined carbapenemases, Compound 1 at fixed 4 μg/mL, read-out: MIC50) was over 32 µg/mL and the MIC90 ([4]; Acinetobacter baumannii, AB CP (100), defined carbapenemases, Compound 1 at fixed 4 μg/mL, read-out: MIC90) was over 32 µg/mL. For the same compound, the MIC50 [4, 7] was >32/>32 μg/mL, the MIC90 [4, 7] was >32/>32 μg/mL and the “% susceptible, [S]” value [4, 7] was “(1.3) %”. For the same compound, the “Minimum Inhibitory Concentration Distribution, % of isolates” value ([5]; MIC 0.125 μg/mL) was 0.2%, the “Minimum Inhibitory Concentration Distribution, % of isolates” value ([5]; MIC 0.25 μg/mL) was 2.8% and the “Minimum Inhibitory Concentration Distribution, % of isolates” value ([5]; MIC 0.5 μg/mL) was 56.2%. The “Minimum Inhibitory Concentration Distribution, % of isolates” value ([5]; MIC 1 μg/mL) was 77.4%, the “Minimum Inhibitory Concentration Distribution, % of isolates” value ([5]; MIC 2 μg/mL) was 85.2% and the “Minimum Inhibitory Concentration Distribution, % of isolates” value ([5]; MIC 4 μg/mL) was 90.4%. For the same compound, the “Minimum Inhibitory Concentration Distribution, % of isolates” value ([5]; MIC 8 μg/mL) was 92.2%, the “Minimum Inhibitory Concentration Distribution, % of isolates” value ([5]; MIC 16 μg/mL) was 93.0% and the “Minimum Inhibitory Concentration Distribution, % of isolates” value ([5]; MIC 32 μg/mL) was 93.2%. The “Minimum Inhibitory Concentration Distribution, % of isolates” value ([5]; MIC >32 μg/mL) was 100.0%, the “Minimum Inhibitory Concentration Distribution, % of isolates” value ([5]; MIC ≤0.06 μg/mL) was 0.2% and the “% susceptible, [S]” value ([5]; PA (CAZ-AVI MIC >8) (37)) was “(18.2) %”. For the same compound, the “% susceptible, [S]” value ([5]; PA (Challenge, 652)) was “(44.0) %”, the “% susceptible, [S]” value ([5]; PA (MER MIC >2) (612)) was “(56.2) %” and the “% susceptible, [S]” value ([5]; PA (Representative, 500)) was “(90.4) %”. The “% susceptible, [S]” value ([5]; PA (TOL-TAZ MIC >4) (39)) was “(3.3) %”, the MIC50 ([5]; PA (CAZ-AVI MIC >8) (37)) was over 32 µg/mL and the MIC90 ([5]; PA (CAZ-AVI MIC >8) (37)) was over 32 µg/mL. It also gave an MIC50 ([5]; PA (Challenge, 652)) of 16 µg/mL, an MIC90 ([5]; PA (Challenge, 652)) of over 32 µg/mL and an MIC50 ([5]; PA (MER MIC >2) (612)) of 4 µg/mL. The MIC90 ([5]; PA (MER MIC >2) (612)) was over 32 µg/mL, the MIC50 ([5]; PA (Representative, 500)) was 0.5 µg/mL and the MIC90 ([5]; PA (Representative, 500)) was 4 µg/mL. For the same compound, the MIC50 ([5]; PA (TOL-TAZ MIC >4) (39)) was over 32 µg/mL, the MIC90 ([5]; PA (TOL-TAZ MIC >4) (39)) was over 32 µg/mL and the MIC50 ([2]; CRE KPC, N = 168) was over 32 µg/mL. The MIC90 ([2]; CRE KPC, N = 168) was over 32 µg/mL, the MIC50 ([2]; CRE MBL, N = 145) was over 32 µg/mL and the MIC90 ([2]; CRE MBL, N = 145) was over 32 µg/mL. For the same compound, the MIC50 ([2]; CRE OXA, N = 152) was over 32 µg/mL, the MIC90 ([2]; CRE OXA, N = 152) was over 32 µg/mL and the MIC50 [2, 6] was over 32 µg/mL. The MIC90 [2, 6] was over 32 µg/mL, the MIC50 [3] was over 32 µg/mL and the MIC90 [3] was over 32 µg/mL.
`CC1(C)[C@H](C(=O)O)N2C(=O)C[C@H]2S1(=O)=O` [SUL, sulbactam] gave an MIC50 ([4]; Acinetobacter baumannii) of over 32 µg/mL, an MIC90 ([4]; Acinetobacter baumannii) of over 32 µg/mL and an MIC ([4]; Acinetobacter baumannii, read-out: Minimum Inhibitory Concentration, AB1144 (NDM-1)) of over 64 µg/mL. For the same compound, the MIC ([4]; Acinetobacter baumannii, read-out: Minimum Inhibitory Concentration, AB1192 (OXA-24, OXA-72)) was 32 µg/mL, the MIC ([4]; Acinetobacter baumannii, read-out: Minimum Inhibitory Concentration, AB1223 (OXA-72)) was 4 µg/mL and the MIC ([4]; Acinetobacter baumannii, read-out: Minimum Inhibitory Concentration, AB1227 (OXA-23)) was 64 µg/mL. It also gave an MIC ([4]; Acinetobacter baumannii, read-out: Minimum Inhibitory Concentration, AB1244 (OXA-23)) of 64 µg/mL, an MIC ([4]; Acinetobacter baumannii, read-out: Minimum Inhibitory Concentration, AB1291 (KPC-2)) of over 64 µg/mL and an MIC ([4]; Acinetobacter baumannii, read-out: Minimum Inhibitory Concentration, AB1307 (OXA-23)) of 32 µg/mL. For the same compound, the MIC ([4]; Acinetobacter baumannii, read-out: Minimum Inhibitory Concentration, AB1333 (OXA-239)) was 16 µg/mL, the MIC ([4]; Acinetobacter baumannii, read-out: Minimum Inhibitory Concentration, AB1358 (NDM-1)) was over 64 µg/mL and the MIC ([4]; Acinetobacter baumannii, read-out: Minimum Inhibitory Concentration, AB1359 (NDM-1)) was over 64 µg/mL.
